This is an account of results in patent US4510139A, “Substituted aminobenzamides and their use as agents which inhibit lipoxygenase activity” (Sterling Drug Inc., priority 1984, dated 1985).

Read-outs that look alike come from different tables or passages of the source.

Test [1] concerns the target T1, cyclooxygenase (Rattus norvegicus, UniProt Q63921).
T1 construct: microsomal fraction containing lipoxygenase and cyclooxygenase; endogenous in cells; host or cells: RBL-1 (rat basophilic leukemia) cells, homogenate / microsomal fraction
T1 sequence (Q63921 27-602): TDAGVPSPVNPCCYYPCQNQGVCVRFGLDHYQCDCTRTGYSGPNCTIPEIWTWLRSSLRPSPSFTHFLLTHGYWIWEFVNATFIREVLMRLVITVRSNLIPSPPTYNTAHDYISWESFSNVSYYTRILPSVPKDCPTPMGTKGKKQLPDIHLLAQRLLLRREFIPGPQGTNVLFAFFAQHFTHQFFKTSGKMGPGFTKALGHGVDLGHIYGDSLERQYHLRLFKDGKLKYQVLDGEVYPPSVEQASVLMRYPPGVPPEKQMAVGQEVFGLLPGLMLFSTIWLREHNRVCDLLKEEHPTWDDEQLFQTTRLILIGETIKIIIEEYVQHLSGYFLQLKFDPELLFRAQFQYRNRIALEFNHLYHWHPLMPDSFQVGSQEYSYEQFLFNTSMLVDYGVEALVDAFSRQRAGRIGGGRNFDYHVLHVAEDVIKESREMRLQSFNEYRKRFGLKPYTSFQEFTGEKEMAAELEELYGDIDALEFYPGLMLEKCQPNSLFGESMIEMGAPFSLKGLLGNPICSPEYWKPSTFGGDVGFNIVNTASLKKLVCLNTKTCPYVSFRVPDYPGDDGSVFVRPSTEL
Kind of test: Inhibition of cyclooxygenase derived from rat basophilic leukemia (RBL-1) cells, product C1 (PGD2). Conditions: for inhibition at 1 µM: dose of 1 μM. It counts as biochemical. The method, then: (§1) The primary screening test used is a determination of the inhibition of lipoxygenase and cyclooxygenase derived from rat basophilic leukemia (RBL-1) cells. The test was carried out according to the following procedure:
(§2) Single cell suspensions of RBL-1 cells are homogenized to obtain the microsomal fraction containing lipoxygenase and cyclooxygenase. Test compounds are added to the enzyme-containing homogenate for a 5 min preincubation period at 37° C. prior to the addition of ^14 C-arachidonic acid substrate. Following incubation at 37° C. for 15 min, the reaction is stopped by the addition of 2M formic acid and the enzyme-substrate products are extracted into chloroform. An aliquot of the extract is evaporated to dryness, reconstituted in ether to 1/10 original volume, spotted in thin layer chromatography plates and chromatographed. The peak areas of radioactivity representing the products are located by scanning the plates. The quantity of products formed is estimated by measuring the height of the radioactivity peaks observed on the chromatographic scans. Alternatively, the areas of radioactivity are scraped from the plate and the ^14 C quantitated by scintillation counting.

In test [2] the target is T2, lipoxygenase (Rattus norvegicus, UniProt P12527).
T2 construct: microsomal fraction containing lipoxygenase and cyclooxygenase; endogenous in cells; host or cells: RBL-1 (rat basophilic leukemia) cells, homogenate / microsomal fraction
T2 sequence (P12527 1-673): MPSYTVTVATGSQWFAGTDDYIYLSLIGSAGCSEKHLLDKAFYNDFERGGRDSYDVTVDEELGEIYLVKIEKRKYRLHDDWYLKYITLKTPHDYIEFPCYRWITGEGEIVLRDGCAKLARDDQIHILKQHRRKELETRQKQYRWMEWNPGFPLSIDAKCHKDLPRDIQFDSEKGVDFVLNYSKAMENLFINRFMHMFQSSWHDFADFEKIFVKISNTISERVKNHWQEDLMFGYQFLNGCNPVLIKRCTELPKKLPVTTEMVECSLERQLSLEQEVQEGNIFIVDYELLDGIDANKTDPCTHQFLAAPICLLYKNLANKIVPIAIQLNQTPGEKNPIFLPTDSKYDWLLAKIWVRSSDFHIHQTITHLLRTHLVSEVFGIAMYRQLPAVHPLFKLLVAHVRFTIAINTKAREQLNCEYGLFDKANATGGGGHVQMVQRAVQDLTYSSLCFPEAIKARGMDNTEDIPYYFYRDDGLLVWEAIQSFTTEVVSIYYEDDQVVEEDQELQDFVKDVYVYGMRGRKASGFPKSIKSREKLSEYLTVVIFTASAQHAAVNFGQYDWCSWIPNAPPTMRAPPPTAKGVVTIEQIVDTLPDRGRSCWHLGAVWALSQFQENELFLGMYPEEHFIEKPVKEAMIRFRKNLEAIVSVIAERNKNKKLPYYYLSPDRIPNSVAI
Kind of test: Inhibition of lipoxygenase derived from rat basophilic leukemia (RBL-1) cells, products L1 (5,12-di-HETE) and L2 (5-HETE). The class given is biochemical. Conditions: for inhibition at 10 µM: dose of 10 μM. The method, then:
as §1, §2

Setting [3] is: read-out: % Inhibition of cyclooxygenase (C1) formation.
Where [4] appears, read: read-out: % Inhibition of lipoxygenase (L1) formation.
[5] abbreviates: read-out: % Inhibition of lipoxygenase (L2) formation.
Where [6] appears, read: dose of 1 μM, L1 = 5,12-di-HETE, read-out: % Inhibition of lipoxygenase (L1) formation.
[7] abbreviates: dose of 1 μM, L2 = 5-HETE, read-out: % Inhibition of lipoxygenase (L2) formation.

Regarding `O=C1C=CC(=Nc2ccccc2C(=O)N2CCCCC2)C=C1` [Example 2, 1-{2-[(4-Oxo-2,5-cyclohexadien-1-ylidene)amino]benzoyl}piperidine], the IC50 in test [1] is more than 1000 nM; in test [2] (IC50 L1, L1 = 5,12-di-HETE), 450 nM; in test [2] (IC50 L2, L2 = 5-HETE) it was 130 nM. The inhibition at 1 µM in test [1] (setting [3]) stood at 0%; in test [2] (setting [4]), 68%; in test [2] (setting [5]) it was 82%.

With `NC(=O)c1ccccc1Nc1ccc(O)cc1` [Example 3(b), 2-(4-Hydroxyphenylamino)benzamide], the half-maximal inhibitory concentration (IC50) in test [1] was more than 1000 nM; in test [2] (IC50 L1, L1 = 5,12-di-HETE), 310 nM; in test [2] (IC50 L2, L2 = 5-HETE) it was 150 nM. Besides, the inhibition at 1 µM in test [1] (setting [3]) was determined as 14%; in test [2] (setting [4]), 78%; in test [2] (setting [5]) it was 83%.

Take `O=C(c1ccccc1Nc1ccc(O)cc1)N1CCCC1` [Example 4(b), 1-[2-(4-Hydroxyphenylamino)benzoyl]pyrrolidine]: the inhibition at 1 µM is 0% in test [1] (setting [3]), 41% in test [2] (setting [6]) and 52% in test [2] (setting [7]).

Turning to `CCCNC(=O)c1ccccc1Nc1ccc(O)cc1` [Example 5(b), 2-(4-Hydroxyphenylamino)-N-propylbenzamide], the IC50 in test [1] is more than 1000 nM; in test [2] (IC50 L1, L1 = 5,12-di-HETE), 130 nM; in test [2] (IC50 L2, L2 = 5-HETE), 110 nM. Besides, the inhibition at 1 µM in test [1] (setting [3]) came to 6%; in test [2] (setting [4]), 62%; in test [2] (setting [5]), 85%.

Regarding `CC1CCN(C(=O)c2ccccc2Nc2ccc(O)cc2)CC1` [Example 6(b), 1-[2-(4-Hydroxyphenylamino)benzoyl]-4-methylpiperidine], the inhibition at 1 µM in test [1] (setting [3]) amounted to 7%; in test [2] (setting [6]) it was 54%; in test [2] (setting [7]), 77%.

For `CNC(=O)c1ccccc1Nc1ccc(O)cc1` [Example 7(b), 2-(4-Hydroxyphenylamino)-N-methylbenzamide], the inhibition at 1 µM amounted to 2% in test [1] (setting [3]), 23% in test [2] (setting [6]) and 48% in test [2] (setting [7]).

On to `CCN(CC)C(=O)c1ccccc1Nc1ccc(O)cc1` [Example 8(b), N,N-Diethyl-2-(4-hydroxyphenylamino)benzamide], for which the results for the inhibition at 1 µM in test [1] (setting [3]), in test [2] (setting [6]) and in test [2] (setting [7]) were 0%, 33% and 63%, respectively.

As for `CC(C)NC(=O)c1ccccc1Nc1ccc(O)cc1` [Example 9(b), 2-(4-Hydroxyphenylamino)-N-isopropylbenzamide], the inhibition at 1 µM in test [1] (setting [3]) was 0%; in test [2] (setting [6]), 72%; in test [2] (setting [7]), 78%.

Regarding `CN(C)C(=O)c1ccccc1Nc1ccc(O)cc1` [Example 10(b), 2-(4-Hydroxyphenylamino)-N,N-dimethylbenzamide], the inhibition at 1 µM in test [1] (setting [3]) was 1%; in test [2] (setting [6]) it was 34%; in test [2] (setting [7]), 56%.

With `O=C(NC1CCCCC1)c1ccccc1Nc1ccc(O)cc1` [Example 12(b), N-Cyclohexyl-2-(4-hydroxyphenylamino)benzamide], the half-inhibitory concentration (IC50) in test [1] was more than 1000 nM; in test [2] (IC50 L1, L1 = 5,12-di-HETE) it was 120 nM; in test [2] (IC50 L2, L2 = 5-HETE), 110 nM. Also, the values for the inhibition at 1 µM in test [1] (setting [3]), in test [2] (setting [4]) and in test [2] (setting [5]) were 0%, 80% and 94%, respectively.

Consider `CCN(C)C(=O)c1ccccc1Nc1ccc(O)cc1` [Example 13(b), 2-(4-Hydroxyphenylamino)-N-ethyl-N-methylbenzamide], for which the inhibition at 1 µM in test [1] (setting [3]) amounted to 0%; in test [2] (setting [6]), 66%; in test [2] (setting [7]) it was 77%.

For the compound `CCCN(CC)C(=O)c1ccccc1Nc1ccc(O)cc1` [Example 14(b), 2-(4-Hydroxyphenylamino)-N-ethyl-N-propylbenzamide], the IC50 was more than 1000 nM in test [1]; 180 nM in test [2] (IC50 L1, L1 = 5,12-di-HETE); 110 nM in test [2] (IC50 L2, L2 = 5-HETE). The results for the inhibition at 1 µM in test [1] (setting [3]), in test [2] (setting [4]) and in test [2] (setting [5]) were 0%, 78% and 95%, respectively.

Turning to `O=C(c1ccccc1Nc1ccccc1O)N1CCCCC1` [Example 15(d), 1-[2-(2-Hydroxyphenylamino)benzoyl]piperidine], the half-inhibitory concentration (IC50) is more than 1000 nM in test [1]; 720 nM in test [2] (IC50 L1, L1 = 5,12-di-HETE); 180 nM in test [2] (IC50 L2, L2 = 5-HETE). In addition, the inhibition at 1 µM in test [1] (setting [3]) was 2%; in test [2] (setting [4]) it was 58%; in test [2] (setting [5]), 80%.

Take `O=C(c1ccccc1Nc1ccc(O)cc1)N1CCOCC1` [Example 16(c), 4-[2-(4-Hydroxyphenylamino)benzoyl]morpholine]: the inhibition at 1 µM in test [1] (setting [3]) amounted to 1%; in test [2] (setting [6]) it was 37%; in test [2] (setting [7]) it was 42%.

In the case of `CCN(CC)C(=O)c1cc(Cl)ccc1Nc1ccc(O)cc1` [Example 17(d), 5-Chloro-N,N-diethyl-2-(4-hydroxyphenylamino)benzamide], the inhibition at 1 µM came to 0% in test [1] (setting [3]), 56% in test [2] (setting [6]) and 73% in test [2] (setting [7]).

Turning to `O=C(c1cc(Cl)ccc1Nc1ccc(O)cc1)N1CCCCC1` [Example 18(b), 1-[5-Chloro-2-(4-hydroxyphenylamino)benzoyl]piperidine], the values for the inhibition at 1 µM in test [1] (setting [3]), in test [2] (setting [6]) and in test [2] (setting [7]) were 16%, 63% and 75%, respectively.

In the case of `O=C(c1ccc(Cl)cc1Nc1ccc(O)cc1)N1CCCC1` [Example 19(d), 1-[4-Chloro-2-(4-hydroxyphenylamino)benzoyl]pyrrolidine], the inhibition at 1 µM amounted to 7% in test [1] (setting [3]), 24% in test [2] (setting [6]) and 42% in test [2] (setting [7]).

As to `O=C(c1ccc(Cl)cc1Nc1ccc(O)cc1)N1CCCCC1` [Example 20(b), 1-[4-Chloro-2-(4-hydroxyphenylamino)benzoyl]piperidine], the inhibition at 1 µM amounted to 12% in test [1] (setting [3]), 32% in test [2] (setting [6]) and 44% in test [2] (setting [7]).

With `CNC(=O)c1ccc(Cl)cc1Nc1ccc(O)cc1` [Example 21(b), 4-Chloro-2-(4-hydroxyphenylamino)-N-methylbenzamide], the concentration for half-maximal inhibition (IC50) in test [1] was more than 1000 nM; in test [2] (IC50 L1, L1 = 5,12-di-HETE), 360 nM; in test [2] (IC50 L2, L2 = 5-HETE), 180 nM.

In the case of `COc1ccc(Nc2ccc(O)cc2)c(C(=O)NCc2ccccc2)c1` [Example 22(d), 2-(4-Hydroxyphenylamino)-N-benzyl-5-methoxybenzamide], the IC50 is more than 1000 nM in test [1]; 300 nM in test [2] (IC50 L1, L1 = 5,12-di-HETE); 260 nM in test [2] (IC50 L2, L2 = 5-HETE). For the same compound, the inhibition at 1 µM in test [1] (setting [3]) turned out to be 0%; in test [2] (setting [4]) it was 81%; in test [2] (setting [5]), 97%.

Turning to `COc1ccc(Nc2ccc(O)cc2)c(C(=O)N2CCCCC2)c1` [Example 23(b), 1-[2-(4-Hydroxyphenylamino)-5-methoxybenzoyl]piperidine], the half-maximal inhibitory concentration (IC50) in test [1] was more than 1000 nM; in test [2] (IC50 L1, L1 = 5,12-di-HETE), 540 nM; in test [2] (IC50 L2, L2 = 5-HETE), 610 nM. For the same compound, the figures for the inhibition at 1 µM in test [1] (setting [3]), in test [2] (setting [4]) and in test [2] (setting [5]) were 19%, 89% and 96%, respectively.

Take `O=C(c1ccccc1Nc1cccc(O)c1)N1CCCCC1` [Example 24(d), 1-[2-(3-Hydroxyphenylamino)benzoyl]piperidine]: the inhibition at 10 µM came out at 42% in test [1] (dose of 10 μM, read-out: % Inhibition of cyclooxygenase (C1) formation); 47% in test [2] (L1 = 5,12-di-HETE, read-out: % Inhibition of lipoxygenase (L1) formation); 56% in test [2] (L2 = 5-HETE, read-out: % Inhibition of lipoxygenase (L2) formation).

The term IC50 denotes the point on the concentration scale where inhibition reaches its midpoint. Read a high IC50 as lower potency. What is called inhibition is the percentage by which the read-out fell short of the control.
